Results: patent US10869834B2, “Treatment of inflammatory bowel disease” (University College Dublin, National University of Ireland, …, priority 2016, dated 2020)

Legend:
C. rodentium [1] = settings: H2O2 generated by Cos-NOX4 cells vs Cos-p22 negative control; 4 h, DMEM; separated by a filter; n=4
Protocol: (§1) Cos-NOX4 and Cos-p22 cells in DMEM, 5% FBS (Cell Signal 18:69-82, 2006; J Biol Chem 283:35273-82, 2008; Mol Cell Biol 30:961-75, 2010) were seeded into the lower chamber of a Boyden chamber (pore width 0.4 μm) 48 h before the assay. Lactobacilli grown in DMEM were suspended in media onto the upper chamber. Co-culture was initiated for 3-4 h in DMEM, 5% FBS media followed by harvesting of bacteria on the filter for RNA isolation.

EPEC = settings: H2O2 released from Cos-NOX4 cells (not Cos-p22) for 3 h; separated by a filter
Protocol: as §1

C. rodentium [2] = settings: single bolus of 1 mM H2O2 in DMEM, analysed 3 h later
Protocol: (§2) Invasion and adhesion assays were performed as previously reported (Cell Host Microbe 12:47-59, 2012). Bacterial cell viability was assessed using the XTT (2,3-Bis-(2-Methoxy-4-Nitro-5-Sulfophenyl)-2H-Tetrazolium-5-Carboxanilide) assay. For in vitro experiments bacteria were exposed at time zero once to 0.7 mM H2O2, except for C. jejuni (5 mM), and analyzed after indicated time periods (up to 3 h, except C. jejuni up to 6 h).

L. monocytogenes [3] = test system: L. monocytogenes
Protocol: as §2

S. pneumoniae [4] = settings: 0.7 mM H2O2 for 3 h
Protocol: as §2

C. rodentium [5] = assay: C. rodentium infection of mice treated with L. johnsonii by oral gavage; format: in vivo, C57Bl/6 mice; settings: daily oral gavage with NCC533 or NCC9359 prior and during infection; 6 dpi
Protocol: Cyba^flox/flox mice were bred to B6.SJL-Tg (Vil-cre) 997Gum/J mice (Jackson Laboratories) to generate mice with a targeted deletion of p22^phox in the epithelium of the small intestine and colon (p22ΔIEC). Mice were infected by oral gavage with 0.3 ml of an overnight culture of Luria Bertani broth containing 5×10^9 Citrobacter rodentium and analyzed at day 6 post infection. L. johnsonii NCC533/NCC9359 pretreatment and treatment: L. johnsonii NCC533 and NCC9359 strains were administered at a concentration of 10^9 CFU to WT mice via oral gavage starting 3 days prior C. rodentium inoculation and daily during C. rodentium infection. For histopathology Carnoy-fixed distal colons were embedded in paraffin and 5 μm sections were stained with hematoxylin and eosin (H&E).

murine colitis (3% DSS) = assay: In-vivo murine colitis model (3% DSS), administration of H2O2-producing bacteria; design: species or system mice
Protocol: Wildtype mice were treated with 1×10^9 bacteria by daily oral gavage 5 days before, during colitis (3% DSS in water) and until the end of the experiment (day 16). On day 7 of DSS treatment, DSS was replaced with water to enable the healing process. […] One-way Anova with Tukey post-hoc test; **p=0.01, ***p=0.001.

[6] = test system: bacterial phosphotyrosine signalling; settings: H2O2 generated by colon cells, human biopsies and rabbit loop model during pathogen exposure; co-culture 3 h
Protocol: Bacteria in RPMI 1640 containing 3% FBS (OD600=0.4; 10^7 bacteria, 1 ml) were incubated with HCT-8 cells at 37° C. in microaerophilic conditions with MOI 50. DPI pretreatment of HCT-8 cells was for 20 min (25 μM). Non-adherent bacteria were removed by centrifugation of media (3300 g, 5 min), and were used for immunoblotting. […] Exposure of bacteria to H2O2 released by Cos cells stable expressing the NOX4-p22^phox complex or as negative control Cos cells expressing only p22^phox was performed using Boyden chambers. Cells in DMEM, 10% FBS medium were seeded into the bottom chamber 24 h before start of the experiment and then moved to microaerophilic conditions for 3 h. Bacteria grown in microaerophilic conditions were resuspended in 5% O2 conditioned DMEM, 3-10% FBS medium, placed on top of the filter (3 μm pore size) and incubated for 3 h. Bacteria were harvested from the filter for analysis.
Polarized In Vitro Organ Culture (pIVOC): pIVOC experiments of colon biopsies were performed as described (Cell Host Microbe 12:47-59, 2012). Bacterial infections were conducted using microaerophilic preconditioned media or buffers. L. monocytogenes was added at a final OD600=0.2 to the apical side of biopsies and H2O2 release was measured. Controls were either non-infected biopsies or biopsies pretreated with 20 μM DPI for 20 min before addition of C. jejuni or L. monocytogenes to the top chamber. […]

L. monocytogenes [7] = settings: Cos-NOX4 cell-produced H2O2 vs Cos-p22
Protocol: Exposure of bacteria to H2O2 released by Cos cells stable expressing the NOX4-p22^phox complex or as negative control Cos cells expressing only p22^phox was performed using Boyden chambers. Cells in DMEM, 10% FBS medium were seeded into the bottom chamber 24 h before start of the experiment and then moved to microaerophilic conditions for 3 h. Bacteria grown in microaerophilic conditions were resuspended in 5% O2 conditioned DMEM, 3-10% FBS medium, placed on top of the filter (3 μm pore size) and incubated for 3 h. Bacteria were harvested from the filter for analysis.

[8] = test system: bacterial phosphotyrosine content; settings: 0.7 mM H2O2, 3 h; when iron is present; 5% O2
Protocol: C. jejuni 81-176, L. monocytogenes EGDe and K. pneumoniae were grown microaerophilic to mid-log phase in minimal essential media. Bacteria were collected by centrifugation (5000 rpm, 10 min) and diluted to OD600=0.2 in MEM. Iron (II) sulfate (40 μM) was added as indicated and cultures were grown microaerophilic until OD600=0.5 was reached. To C. jejuni 81-176 cultures 5 mM H2O2 was added and the growth continued microaerophilic for 8 h. L. monocytogenes and K. pneumoniae cultures were exposed to 0.7 mM H2O2 for 3 h in microaerophilic conditions. Bacteria were then diluted to OD600=0.2, collected by centrifugation, washed twice with 25 mM Tris-HCl, resuspended in 30 μl Laemmli buffer and heated for 5 min at 95° C. Boiled samples were loaded on 10% SDS-PAGE gels, separated by electrophoresis and immunoblotted. The control samples followed an identical protocol without supplemental iron or added H2O2.

S. pneumoniae [9] = settings: bacteria pretreated with 0.7 mM H2O2 for 3 h
Protocol: Biofilm was analyzed using SYTO9. Cultured bacteria were grown in microaerophilic conditions overnight. The bacterial culture was then adjusted to OD600=0.1 and 1 ml of this solution was added to an optical grade plastic bottom μ-plate 24 well. Bacteria were incubated for an additional 72 h in microaerophilic conditions. Bacteria were washed gently with autoclaved water to remove planktonic cells and fixed with 3% paraformaldehyde in PBS for 1 h. Images were then analyzed for total intensity of SYTO9 fluorescence over the imaged volumes using Fiji. Briefly, after staining with SYTO9, 50 independent 13.2 μm stacks of 60 images at a 0.22 μm Z resolution were imaged for all conditions. The mean fluorescence of the different slices in the stacks was measured and a standard deviation was computed from the aggregated data per slice.

mucus secretion = settings: Birchenough G. et al., Science 352:1535-1542; cited from earlier work
[10] = bacteria pretreated with 0.7 mM H2O2 for 3 h
[11] = daily oral gavage 5 days before, during colitis and until day 16

OO [H2O2, hydrogen peroxide]
ler and escN expression in C. rodentium (qPCR) (C. rodentium [1]): Downregulation of LEE island genes
ler and escN expression in EPEC (qPCR) (EPEC): Downregulation of LEE island genes
ler expression in C. rodentium (qPCR) (C. rodentium [2]): Downregulation of ler
bacterial viability after treatment (L. monocytogenes [3]; 0.7 mM H2O2 for 3 h): remained fully viable
adherence to HCT-8 colon cells (L. monocytogenes [3]; [10]): reduced
invasion of HCT-8 colon cells (L. monocytogenes [3]; [10]): reduced
bacterial viability after treatment (S. pneumoniae [4]): remained fully viable
host epithelial tissue damage (H&E staining of colon sections) (C. rodentium [5]): required to prevent host epithelial tissue damage
recovery after insult (disease index, body weight) (murine colitis (3% DSS); daily administration, low nanomolar H2O2 (via NCC533, 1x10^9 bacteria oral gavage), DSS replaced with water on day 7): accelerates recovery after insult
inflammation (colon length as indicator) (murine colitis (3% DSS); [11]): downregulates inflammation
tissue restitution (H&E staining of colon day 11) (murine colitis (3% DSS); [11]): supports rapid tissue restitution
bacterial phosphotyrosine signalling (anti-phosphotyrosine immunoblots) [6]: downregulates bacterial phosphotyrosine signalling
bacterial phosphotyrosine content (anti-phosphotyrosine immunoblot) (L. monocytogenes [7]): marked decrease in bacterial phosphotyrosine content
bacterial phosphotyrosine content (anti-phosphotyrosine immunoblots) [8]: decreases bacterial phosphotyrosine content
biofilm formation (mean SYTO9 fluorescence) (S. pneumoniae [9]): Reduced biofilm formation
mucus secretion (mucus secretion): can restore mucus secretion
